In patent US9718821B2, “Pyridopyrimidinone inhibitors of kinases” (AbbVie Inc., priority 2012, dated 2017):

These compounds were tested against T1, GST-tagged-Wee1 kinase (Homo sapiens, UniProt P30291) (assay: Wee1 time-resolved fluorescence equilibrium binding assay (displacement of Oregon Green-labeled ATP-competitive kinase probe)). Conditions: enzyme binding data; GST-tagged-Wee1 kinase 2 nM, fluorescent probe 300 nM, inhibitor 0.003 to 10 micromolar, 1 hour incubation; read-out: Wee-1 binding (Ki nM).
T1 construct: purchased Carnabio 05-177
T1 sequence (P30291 whole entry): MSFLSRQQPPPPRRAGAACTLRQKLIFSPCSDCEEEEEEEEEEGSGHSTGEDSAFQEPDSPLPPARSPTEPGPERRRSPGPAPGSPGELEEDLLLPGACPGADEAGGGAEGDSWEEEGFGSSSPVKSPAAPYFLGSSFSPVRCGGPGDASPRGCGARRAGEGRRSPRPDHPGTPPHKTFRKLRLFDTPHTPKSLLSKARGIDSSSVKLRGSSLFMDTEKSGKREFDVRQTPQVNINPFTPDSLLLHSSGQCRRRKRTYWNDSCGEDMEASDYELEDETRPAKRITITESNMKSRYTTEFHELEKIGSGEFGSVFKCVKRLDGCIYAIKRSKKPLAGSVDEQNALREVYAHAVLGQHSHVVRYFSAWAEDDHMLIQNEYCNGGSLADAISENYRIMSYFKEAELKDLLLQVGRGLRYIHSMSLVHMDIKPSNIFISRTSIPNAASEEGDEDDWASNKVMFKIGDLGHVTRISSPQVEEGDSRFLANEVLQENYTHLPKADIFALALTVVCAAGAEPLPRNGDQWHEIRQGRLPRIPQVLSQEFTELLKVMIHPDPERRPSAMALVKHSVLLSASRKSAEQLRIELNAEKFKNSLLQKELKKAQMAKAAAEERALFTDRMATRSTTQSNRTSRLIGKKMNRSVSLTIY
Protocol: Wee1 kinase was assayed using a time-resolved fluorescence equilibrium binding assay monitoring displacement of a rapidly reversible Oregon Green-labeled ATP-competitive kinase probe (N-(2-(2-(2-(4-(4-(5-chloro-4-(2-(1-hydroxycyclobutyl)thiazol-5-yl)-1H-pyrrolo[2,3-b]pyridin-2-yl)phenyl)piperazin-1-yl)ethoxy)ethoxy)ethyl)-2′,7′-difluoro-3′,6′-dihydroxy-3-oxo-3H-spiro[isobenzofuran-1,9′-xanthene]-5-carboxamide) by competitive Wee1 inhibitors.
Table 1 depicts enzyme binding data (Ki)for exemplary compounds.

Ki | Compound
0.4 nM | O=c1c2cnc(Nc3ccc4c(c3)CCNC4)nc2c(CF)cn1-c1c(Cl)cccc1Cl [Example 110, 6-(2,6-dichlorophenyl)-8-(fluoromethyl)-2-(1,2,3,4-tetrahydroisoquinolin-6-ylamino)pyrido[4,3-d]pyrimidin-5(6H)-one]
0.4 nM | Cc1cn(-c2c(Cl)cccc2Cl)c(=O)c2cnc(Nc3ccc4c(c3)CN(C)CC4(C)C)nc12 [Example 79, 6-(2,6-dichlorophenyl)-8-methyl-2-[(2,4,4-trimethyl-1,2,3,4-tetrahydroisoquinolin-7-yl)amino]pyrido[4,3-d]pyrimidin-5(6H)-one]
0.1 nM | Cc1cn(-c2c(Cl)cccc2Cl)c(=O)c2cnc(Nc3ccc4c(c3)CNC4(C)C)nc12 [Example 121, 6-(2,6-dichlorophenyl)-2-[(1,1-dimethyl-2,3-dihydro-1H-isoindol-5-yl)amino]-8-methylpyrido[4,3-d]pyrimidin-5(6H)-one]
0.265 nM | CC1(C)CNCc2cc(Nc3ncc4c(=O)n(-c5c(Cl)cccc5Cl)cc(C(F)F)c4n3)ccc21 [Example 85, 6-(2,6-dichlorophenyl)-8-(difluoromethyl)-2-[(4,4-dimethyl-1,2,3,4-tetrahydroisoquinolin-7-yl)amino]pyrido[4,3-d]pyrimidin-5(6H)-one]
0.5 nM | Cc1cn(-c2c(Cl)cccc2Cl)c(=O)c2cnc(Nc3ccc4c(c3)CNCC4)nc12 [Example 80, 6-(2,6-dichlorophenyl)-8-methyl-2-(1,2,3,4-tetrahydroisoquinolin-7-ylamino)pyrido[4,3-d]pyrimidin-5(6H)-one]
1.5 nM | Cc1cn(-c2c(F)cccc2Cl)c(=O)c2cnc(Nc3ccc4c(c3)CNCC4(C)C)nc12 [Example 73, 6-(2-chloro-6-fluorophenyl)-2-[(4,4-dimethyl-1,2,3,4-tetrahydroisoquinolin-7-yl)amino]-8-methylpyrido[4,3-d]pyrimidin-5(6H)-one]
0.5 nM | C=Cc1cn(-c2c(Cl)cccc2Cl)c(=O)c2cnc(Nc3ccc4c(c3)CNCC4(C)C)nc12 [Example 56, 6-(2,6-dichlorophenyl)-2-[(4,4-dimethyl-1,2,3,4-tetrahydroisoquinolin-7-yl)amino]-8-ethenylpyrido[4,3-d]pyrimidin-5(6H)-one]
0.1 nM | CC1(C)CNCc2cc(Nc3ncc4c(=O)n(-c5c(Cl)cccc5Cl)cc(CO)c4n3)ccc21 [Example 58, 6-(2,6-dichlorophenyl)-2-[(4,4-dimethyl-1,2,3,4-tetrahydroisoquinolin-7-yl)amino]-8-(hydroxymethyl)pyrido[4,3-d]pyrimidin-5(6H)-one]
0.3 nM | O=c1c2cnc(Nc3ccc4c(c3)CNCC4)nc2c(CF)cn1-c1c(Cl)cccc1Cl [Example 109, 6-(2,6-dichlorophenyl)-8-(fluoromethyl)-2-(1,2,3,4-tetrahydroisoquinolin-7-ylamino)pyrido[4,3-d]pyrimidin-5(6H)-one]
0.3 nM | CN1Cc2cc(Nc3ncc4c(=O)n(-c5c(Cl)cccc5Cl)cc(CO)c4n3)ccc2C2(CC2)C1 [Example 53, 6-(2,6-dichlorophenyl)-8-(hydroxymethyl)-2-[(2′-methyl-2′,3′-dihydro-1′H-spiro[cyclopropane-1,4′-isoquinolin]-7′-yl)amino]pyrido[4,3-d]pyrimidin-5(6H)-one]

Second part, the compound before the results:

Compound | Ki
Cc1n[nH]c(C)c1-n1cc(C)c2nc(Nc3ccc4c(c3)CNCC4)ncc2c1=O [Example 123, 6-(3,5-dimethyl-1H-pyrazol-4-yl)-8-methyl-2-(1,2,3,4-tetrahydroisoquinolin-7-ylamino)pyrido[4,3-d]pyrimidin-5(6H)-one] | 1.3 nM
Cc1cn(-c2c(Cl)cccc2Cl)c(=O)c2cnc(Nc3ccc4c(c3)CN(C3CCN(C)CC3)C4)nc12 [Example 137, 6-(2,6-dichlorophenyl)-8-methyl-2-{[2-(1-methylpiperidin-4-yl)-2,3-dihydro-1H-isoindol-5-yl]amino}pyrido[4,3-d]pyrimidin-5(6H)-one] | 0.4 nM
Cc1cn(-c2c(Cl)cccc2Cl)c(=O)c2cnc(Nc3ccc(NCCN(C)C)cc3)nc12 [Example 130, 6-(2,6-dichlorophenyl)-2-[(4-{[2-(dimethylamino)ethyl]amino}phenyl)amino]-8-methylpyrido[4,3-d]pyrimidin-5(6H)-one] | 0.3 nM
C=Cc1cn(-c2c(Cl)cccc2Cl)c(=O)c2cnc(Nc3ccc4c(c3)CC(N(C)C)C4)nc12 (stereo not drawn) [Example 49, 6-(2,6-dichlorophenyl)-2-{[2-(dimethylamino)-2,3-dihydro-1H-inden-5-yl]amino}-8-ethenylpyrido[4,3-d]pyrimidin-5(6H)-one] | 0.3 nM
Cc1cn(-c2c(Cl)cccc2Cl)c(=O)c2cnc(Nc3ccc4c(c3)CN(C)C4(C)C)nc12 [Example 115, 6-(2,6-dichlorophenyl)-8-methyl-2-[(1,1,2-trimethyl-2,3-dihydro-1H-isoindol-5-yl)amino]pyrido[4,3-d]pyrimidin-5(6H)-one] | 0.2 nM
Cc1cn(-c2cccc3cccnc23)c(=O)c2cnc(Nc3ccc4c(c3)CN(C)CC43CC3)nc12 [Example 97, 8-methyl-2-[(2′-methyl-2′,3′-dihydro-1′H-spiro[cyclopropane-1,4′-isoquinolin]-7′-yl)amino]-6-(quinolin-8-yl)pyrido[4,3-d]pyrimidin-5(6H)-one] | 28.2 nM
Cc1cccc(C)c1-n1cc(C)c2nc(Nc3ccc(N4CCN(CCCN(C)C)CC4)cc3)ncc2c1=O [Example 139, 2-[(4-{4-[3-(dimethylamino)propyl]piperazin-1-yl}phenyl)amino]-6-(2,6-dimethylphenyl)-8-methylpyrido[4,3-d]pyrimidin-5(6H)-one] | 2.1 nM
Cc1cn(-c2c(Cl)cccc2Cl)c(=O)c2cnc(Nc3ccc(N[C@H]4CC[C@@H](N(C)C)CC4)cc3)nc12 [Example 133, 6-(2,6-dichlorophenyl)-2-[(4-{[cis-4-(dimethylamino)cyclohexyl]amino}phenyl)amino]-8-methylpyrido[4,3-d]pyrimidin-5(6H)-one] | 0.5 nM
Cc1cn(-c2c(F)cccc2Cl)c(=O)c2cnc(Nc3ccc(N4CCC(N(C)C)CC4)cc3)nc12 [Example 69, 6-(2-chloro-6-fluorophenyl)-2-({4-[4-(dimethylamino)piperidin-1-yl]phenyl}amino)-8-methylpyrido[4,3-d]pyrimidin-5(6H)-one] | 2.4 nM
Cc1cn(-c2ccccc2-c2cnco2)c(=O)c2cnc(Nc3ccc(N4CCC(N(C)C)CC4)cc3)nc12 [Example 106, 2-({4-[4-(dimethylamino)piperidin-1-yl]phenyl}amino)-8-methyl-6-[2-(1,3-oxazol-5-yl)phenyl]pyrido[4,3-d]pyrimidin-5(6H)-one] | 115 nM
Cc1cn(-c2c(F)cccc2Cl)c(=O)c2cnc(Nc3ccc4c(c3)CNCC4)nc12 [Example 75, 6-(2-chloro-6-fluorophenyl)-8-methyl-2-(1,2,3,4-tetrahydroisoquinolin-7-ylamino)pyrido[4,3-d]pyrimidin-5(6H)-one] | 0.8 nM
Cc1cn(-c2ccccc2Cl)c(=O)c2cnc(Nc3ccc(N4CCC(N(C)C)CC4)cc3)nc12 [Example 99, 6-(2-chlorophenyl)-2-({4-[4-(dimethylamino)piperidin-1-yl]phenyl}amino)-8-methylpyrido[4,3-d]pyrimidin-5(6H)-one] | 0.9 nM
Cc1cn(-c2c(Cl)cccc2Cl)c(=O)c2cnc(Nc3ccc(N4CCN(CCCN(C)C)CC4)cc3)nc12 [Example 131, 6-(2,6-dichlorophenyl)-2-[(4-{4-[3-(dimethylamino)propyl]piperazin-1-yl}phenyl)amino]-8-methylpyrido[4,3-d]pyrimidin-5(6H)-one] | 0.2 nM
C=Cc1cn(-c2c(Cl)cccc2Cl)c(=O)c2cnc(Nc3ccc4c(c3)CCNC4)nc12 [Example 59, 6-(2,6-dichlorophenyl)-8-ethenyl-2-(1,2,3,4-tetrahydroisoquinolin-6-ylamino)pyrido[4,3-d]pyrimidin-5(6H)-one] | 0.1 nM
COC(=O)c1ccc(Cl)c(-n2cc(C)c3nc(Nc4ccc5c(c4)CNCC5)ncc3c2=O)c1 [Example 107, methyl 4-chloro-3-[8-methyl-5-oxo-2-(1,2,3,4-tetrahydroisoquinolin-7-ylamino)pyrido[4,3-d]pyrimidin-6(5H)-yl]benzoate] | 321 nM
Cc1noc(C)c1-n1cc(C)c2nc(Nc3ccc4c(c3)CNCC4)ncc2c1=O [Example 124, 6-(3,5-dimethyl-1,2-oxazol-4-yl)-8-methyl-2-(1,2,3,4-tetrahydroisoquinolin-7-ylamino)pyrido[4,3-d]pyrimidin-5(6H)-one] | 1.6 nM
Cc1cn(-c2c(F)cccc2Cl)c(=O)c2cnc(Nc3ccc4c(c3)CN(C)CC43CC3)nc12 [Example 67, 6-(2-chloro-6-fluorophenyl)-8-methyl-2-[(2′-methyl-2′,3′-dihydro-1′H-spiro[cyclopropane-1,4′-isoquinolin]-7′-yl)amino]pyrido[4,3-d]pyrimidin-5(6H)-one] | 0.8 nM
Cc1cn(-c2c(Cl)cccc2Cl)c(=O)c2cnc(Nc3ccc(SCCN(C)C)cc3)nc12 [Example 92, 6-(2,6-dichlorophenyl)-2-[(4-{[2-(dimethylamino)ethyl]sulfanyl}phenyl)amino]-8-methylpyrido[4,3-d]pyrimidin-5(6H)-one] | 0.378 nM
Cc1cn(-c2ccccc2O)c(=O)c2cnc(Nc3ccc4c(c3)CNCC4)nc12 [Example 117, 6-(2-hydroxyphenyl)-8-methyl-2-(1,2,3,4-tetrahydroisoquinolin-7-ylamino)pyrido[4,3-d]pyrimidin-5(6H)-one] | 2 nM
Cc1cn(-c2c(Cl)cccc2Cl)c(=O)c2cnc(Nc3ccc(OC4CCN(C)CC4)cc3)nc12 [Example 122, 6-(2,6-dichlorophenyl)-8-methyl-2-({4-[(1-methylpiperidin-4-yl)oxy]phenyl}amino)pyrido[4,3-d]pyrimidin-5(6H)-one] | 0.4 nM
